# According to PMC6471062, “Suppression of the Ubiquitin Pathway by Small Molecule Binding to Ubiquitin Enhances Doxorubicin Sensitivity of the Cancer Cells” (Molecules, 2019):
# What was measured:
# [1] = tested on: H1299 cells; assay: Cytotoxicity, cell viability assay; format: cell-based
# Description: (§1) Cell viability assays were performed as described previously. For the caspase assays, the media were removed, and cells were lysed in 200 µL lysis buffer containing 50 µL Caspase Glo 3/7 solution and incubated for 15 min. Results were observed by measuring the luminescence signal using KOMM-Nr (Berthold Technologies, Bad Wildbad, Germany) and normalized with the total protein concentration measured by the Bradford assay. Data were analyzed using GraphPad Prism version 6.0 for Windows with two tail t-test for statistical data analysis […]
# Figure S7. Cytotoxicity of CR to cancer cells. H1299 cells were cultured in 96 -well plates. CR was added to final concentrations of 0.0 – 50.0 µM, and the cells were incubated for 24 h followed by cell viability assay. All error bars represent the standard deviation from at least 4 independent experiments. Statistical comparisons between groups were determined by Student’s t -test. If p -values are less than 0.05, they are statistically significant . NS, not […]
# (1 picture or pasted object on this page, not shown here)
# [2] = tested on: H1299 cells; assay: Dox-induced cell death, colorimetric cell viability, H1299; format: cell-based; conditions: 10 µM CR or 5 µM NSC697923 12 h, then Dox 1.25–5.0 μM 12 h
# Description: (§2) Figure 7 CR enhances Dox sensitivity of cancer cells. (a,b) Enhancement of Dox-induced apoptosis of cancer cells by CR treatment. Dox–induced apoptosis of H1299 (a) and HCT116 (b) was quantified by colorimetric cell viability after treating 10 µM CR for 12 h followed by 12h treatment of Dox (0.0–5.0 µM). […] Caspase activity was quantified by luminogenic caspase activity assay. […] All error bars represent the standard deviation from at least four independent experiments. Statistical significance was calculated by the Student’s t-test (** p < 0.01, *** p < 0.001).
# as §1
# (§3) Figure S8. NSC697923 enhances Dox sensitivity of cancer cells. (a, b) Effect of NSC697923 to cancer cells’ viability in Dox treatment . Dox–induced cell death of H1299 ( a) and HCT116 ( b) was quantified by colorimetric cell viability assay after treating 5 µM NSC697923 for 12 h followed by 12h treatment of Dox (0.0 […]
# (§4) NSC697923. Caspase activity was quantified by luminogenic caspase activity assay. All error bars represent the standard deviation from at least 4 independent experiments. *, P<0.05; **, P<0.01; ***, P<0.001.
# [3] = tested on: Ubc13; assay: In vitro K63 polyubiquitination reaction with Ubc13; format: biochemical; conditions: purified Ubc13 (Mms2/Ubc13), increasing CR (50–500 µM), 500 µM ubiquitin, 37 °C
# Description: Figure 5 CR inhibits K48- and K63- polyubiquitination in vitro. (a) Interacting surface of ubiquitin when complex with E2-25K and Ubc13 compared with the surface used for CR binding. (b,c) CR inhibits K48- (b) and K63-ubiquitinations (c). First, mono ubiquitin was mixed with UBA1, E2-25K or complex Mms2/Ubc13, and 0–500 µM CR in the presence or absence of ATP regeneration system. Then the mixture was incubated at 37 °C for […]. The reaction was stopped by adding 5X SDS loading buffer and the results were analyzed with 15% SDS-PAGE.
# (§5) For in vitro ubiquitination assays, 500 µM of ubiquitin was used for each ubiquitination reaction as described previously, in the absence or presence of 50–500 µM of CR. The reactions were incubated at 37 °C for 4 h and 16 h for K63- and K48 polyubiquitination respectively. The reaction was terminated by adding 5X SDS sampling buffer and results were subjected to 15% SDS-PAGE followed by Coomassie Blue staining for analyses. […] The generation of GST-ubiquitin from GST-Ubiquitin-HA as the mobility shifts were analyzed on 12.5% SDS-PAGE visualized by Coomassie blue staining. Band intensities were quantified by ImageJ [55] and used to generate the IC50 curves (log inhibitor vs. normalized response with variable slope) by GraphPad Prism version 6.0 for Windows (GraphPad Software, San Diego, CA, USA, www.graphpad.com).
# [4] = biological target: ubiquitin (Homo sapiens, UniProt P0CG47); assay: Intrinsic fluorescence quenching assay of ubiquitin; conditions: 50 µM ubiquitin, 0–500 µM compound, ex 274 nm / em 305 nm; read-out: Kd, dissociation constant upon binding to ubiquitin
# Description: Intrinsic fluorescence quenching assays were performed as described previously. Briefly, intrinsic fluorescence quenching of ubiquitin by indicated compounds was observed by measuring the excitation and emission wavelength at 274 nm and 305 nm respectively of the mixture of 50 µM purified ubiquitin and 0–500 µM compound. Data were fitted to nonlinear regression curves with the equation described previously. F = −∆ε·[PC] + Fo(3) b = (Po + Co + Kd)(4) c = Po·Co(5) [PC] = [b − (b^2 − 4·c)^1/2]/2(6) where Fo and F are the normalized fluorescence intensity of the mixture of ubiquitin without the compound and with different concentrations of the compound, respectively. ∆ε is a difference in the extinction coefficient of the compound between their free and complex forms. [PC] is the concentration of protein/compound complex. Po and Co are the added concentration of ubiquitin and the compound, respectively in each experiment. Kd is the dissociation constant.
# [5] = tested on: H1299 cells; assay: Luminogenic caspase activity assay (Caspase Glo 3/7), H1299; format: cell-based; conditions: 10 µM CR or 5 µM NSC697923 with Dox
# Description: as §2
# as §1, with “assay.” for “assay. Data were analyzed using GraphPad Prism version 6.0 for Windows with two tail t-test for statistical data analysis”
# as §3
# (§6) NSC697923. Caspase activity was quantified by luminogenic caspase activity assay. […]
# [6] = Cell membrane permeability (inferred from intracellular action); conditions: in contrast to CSB6B; inferred from intracellular effect on ubiquitination
# [7] = tested on: HCT116 cells; assay: Luminogenic caspase activity assay (Caspase Glo 3/7), HCT116; format: cell-based; conditions: 10 µM CR or 5 µM NSC697923 with Dox
# Description: as §2
# as §1, with “assay.” for “assay. Data were analyzed using GraphPad Prism version 6.0 for Windows with two tail t-test for statistical data analysis”
# as §3, §6
# [8] = biological target: UCHL1 (Homo sapiens); assay: Deubiquitination assay, cleavage of GST-Ubiquitin-HA by UCHL1 (SDS-PAGE band intensity); format: biochemical
# Description: as §5, with “CR.” for “CR. The reactions were incubated at 37 °C for 4 h and 16 h for K63- and K48 polyubiquitination respectively. The reaction was terminated by adding 5X SDS sampling buffer and results were subjected to 15% SDS-PAGE followed by Coomassie Blue staining for analyses.”
# [9] = tested on: HCT116 cells; assay: Dox-induced cell death, colorimetric cell viability, HCT116; format: cell-based; conditions: 10 µM CR or 5 µM NSC697923 12 h, then Dox 1.25–5.0 μM 12 h
# Description: as §2
# as §1, with “assay.” for “assay. Data were analyzed using GraphPad Prism version 6.0 for Windows with two tail t-test for statistical data analysis”
# as §3, §4
# UCHL1 (Homo sapiens), sequence (P09936 whole entry, other chains not shown): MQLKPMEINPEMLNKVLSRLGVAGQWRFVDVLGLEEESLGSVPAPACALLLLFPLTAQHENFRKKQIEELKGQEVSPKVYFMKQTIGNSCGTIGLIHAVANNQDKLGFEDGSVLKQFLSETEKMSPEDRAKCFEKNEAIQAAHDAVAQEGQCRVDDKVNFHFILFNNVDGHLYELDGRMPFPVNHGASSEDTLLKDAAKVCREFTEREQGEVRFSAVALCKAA
compound,measurement,setting,value
"Nc1c(/N=N/c2ccc(-c3ccc(/N=N/c4cc(S(=O)(=O)O)c5ccccc5c4N)cc3)cc2)cc(S(=O)(=O)O)c2ccccc12 [CR, Congo red]","Effect on cell viability, compound alone","[1]; H1299, CR 0.0–50.0 µM, 24 h",does not affect
same,None-toxicity concentration,[1]; determined by cytotoxicity assays,10 µM
same,"Effect on Dox-induced cell death, H1299",[2],significantly enhanced Dox-induced cell death
same,Inhibition of K63 polyubiquitination,[3],effectively inhibited by CR in a dose-dependent manner
same,Kd,[4],14.4 ± 1.27 µM
same,Effect on caspase activity of Dox-treated H1299 cells,[5],Enhanced caspase activity
same,Cell permeability,[6],better cell permeability
same,Effect on caspase activity of Dox-treated HCT116 cells,[7],Enhanced caspase activity
same,IC50,[8],26.9 ± 2.99 µM
same,"Effect on Dox-induced cell death, HCT116",[9],significantly enhanced Dox-induced cell death
